# Tested on: Tobacco mosaic virus
# Assay: Inhibitory activity against Tobacco mosaic virus (TMV) inoculated in Nicotiana tabacum L. cv.K326 leaf assessed as inhibition of virus multiplication at 0.2 mg/ml measured by leaf disk method (reference value: 0%)
# Assay type: functional
row,Structure (SMILES),inhibition at 200 µg/mL
1,CCCCCCCCCC/C=C/C=C/CCCC(=O)OCC(O)CO (centres undefined),12.5%
2,CCCCCCCC/C=C/C=C/CCCCCCCCCCCCCCCCCCCCCC(=O)OC(CO)CO,16.3%
3,Cc1c(O)c(-c2c(O)c(C)c3c(c2O)CO[C@H](C)[C@H]3C)c(O)c2c1[C@@H](C)[C@H](C)OC2 [ASPERBIPHENYL],35.5%
4,CCCCCCCCCCCCCCCCCCCCCCCCCC/C=C/C=C/C=C/CCC(=O)OC(CO)CO,13.9%
5,CCCCCCC/C=C/C=C/CCCC(=O)OC(CO)CO,14.2%
6,COc1cc2oc3cccc(O)c3c(=O)c2c2c1[C@@H]1C=CO[C@@H]1O2 [ASPERXANTHONE],62.9%
7,CCCCCCCCCCC/C=C/C=C/CCCC(=O)OCC(O)CO (centres undefined),14.9%
8,CCCCCCCC/C=C/C=C/CCCCCCCCCCCCCC/C=C/C=C/CCCC(=O)OCC(O)CO (centres undefined),17.4%
9,CCCCCCCC/C=C/C=C/CCCCCCCCCCCCCC/C=C/C=C/CCCC(=O)OC(CO)CO,14.3%

# Source: ChEMBL document CHEMBL3045899, “New asperxanthone and asperbiphenyl from the marine fungus Aspergillus sp” (2009)
